Literature values in US20160271257A1, “Low Molecular Weight Immune-Modulators As Adjuvants for Specific Immunotherapy” (PLS-DESIGN GMBH, priority 2013, published 2016).
Values after ≈ are worked out from the molar mass of the structure shown. “Also recorded” adds a separate entry of the source. Where two headings read alike, the source gives them in different places. Ends that are not written are not given here.

Key:
[1] = test system: NF-kappa B translocation; conditions: read-out: concentration for 50% inhibition of NF-kappa B translocation
[2] = test system: TNFR1-mediated activation of NF-kappa B
[3] = test system: IL-4 and IL-13
[4] = six months, budesonide 800 μg/d and cholecalciferol 500 IU
[5] = not given; remark: listed apart in the source
[6] = target: T1, CD3 (Homo sapiens, UniProt P07766); conditions: in vivo
T1 construct: endogenous in cells; host or cells: T cells of type 1 diabetes patients (clinical studies reported in the literature)
T1 sequence (P07766 23-207): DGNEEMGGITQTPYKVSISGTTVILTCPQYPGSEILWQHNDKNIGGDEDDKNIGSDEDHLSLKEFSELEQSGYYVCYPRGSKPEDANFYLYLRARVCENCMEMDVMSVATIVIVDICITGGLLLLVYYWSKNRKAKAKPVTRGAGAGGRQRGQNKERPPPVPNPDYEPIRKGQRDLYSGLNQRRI
T1 sequence (P04234 22-171 partner): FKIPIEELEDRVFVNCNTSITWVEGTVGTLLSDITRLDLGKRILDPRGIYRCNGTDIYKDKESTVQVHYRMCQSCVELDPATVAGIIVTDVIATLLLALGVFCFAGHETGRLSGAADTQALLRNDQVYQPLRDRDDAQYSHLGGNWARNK
T1 sequence (P09693 23-182 partner): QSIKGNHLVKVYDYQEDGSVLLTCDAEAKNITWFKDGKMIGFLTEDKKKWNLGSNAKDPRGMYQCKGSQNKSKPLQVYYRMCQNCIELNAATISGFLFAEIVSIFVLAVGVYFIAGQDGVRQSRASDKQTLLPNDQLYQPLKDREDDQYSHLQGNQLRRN
T1 sequence (P20963 22-164 partner): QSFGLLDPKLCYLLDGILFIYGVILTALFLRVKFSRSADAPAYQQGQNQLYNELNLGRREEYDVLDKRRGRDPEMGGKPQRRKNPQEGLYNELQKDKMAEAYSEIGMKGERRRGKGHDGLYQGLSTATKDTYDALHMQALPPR

[7] = in vivo
[8] = target: T2, C3aR (Homo sapiens, UniProt Q16581); conditions: human neutrophils; read-out: IC50 of inhibition of C3a-induced calcium mobilization
T2 sequence (Q16581 1-482): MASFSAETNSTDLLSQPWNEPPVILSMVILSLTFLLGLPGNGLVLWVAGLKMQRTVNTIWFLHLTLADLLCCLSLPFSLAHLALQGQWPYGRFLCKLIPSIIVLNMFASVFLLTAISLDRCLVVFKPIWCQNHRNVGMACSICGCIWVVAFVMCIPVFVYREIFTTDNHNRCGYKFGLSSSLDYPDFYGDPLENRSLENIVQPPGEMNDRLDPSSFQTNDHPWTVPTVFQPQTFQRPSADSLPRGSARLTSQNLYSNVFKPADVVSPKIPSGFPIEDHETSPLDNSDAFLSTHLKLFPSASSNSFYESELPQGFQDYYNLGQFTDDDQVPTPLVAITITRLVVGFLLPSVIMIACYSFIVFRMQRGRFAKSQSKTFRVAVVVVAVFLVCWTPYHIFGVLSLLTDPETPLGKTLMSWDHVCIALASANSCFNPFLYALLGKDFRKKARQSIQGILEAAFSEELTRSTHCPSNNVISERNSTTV

[9] = not given; remark: listed apart in the source
[10] = test system: C3; conditions: sera from cynomolgus monkeys; read-out: IC50 of haemolytic activity
[11] = test system: C3; conditions: 10 mg/kg i.v. bolus then 60 μg/kg/min infusion
[12] = test system: C3 proteins from lower mammalian species, C4 and C5
[13] = test system: isolated rat cardiomyocytes; conditions: for glutathione repletion and unmasking of TNFR2-mediated effects (reproducing in vivo NAC treatment): incubation 2-3 hours, 50 μmol/L GSM, 50 μmol/L NAC or 10 mmol/L GSH; for protection against the deleterious effects of TNF-alpha on contraction: preincubation 2-3 hours, exogenously added, 50 μM GSM
[14] = test system: calcium metabolism
[15] = for time detectable in serum by HPLC: rats
[16] = topical, used clinically for years
[17] = topical pretreatment
[18] = not given; remark: listed apart in the source
[19] = not given; remark: listed apart in the source
[20] = in most of the subjects
[21] = 3-day NAC 120 mg/kg/day, 2-month post-myocardial infarction rats
[22] = 8 days
[23] = oral 1800 mg/day added to standard therapy
[24] = 600 mg to 1000 mg three times daily, 4 weeks
[25] = test system: peripheral blood T cells
[26] = not given; remark: listed apart in the source
[27] = 2 μg/day, 3 months
[28] = in vivo; remark: listed apart in the source
[29] = 10 ng with 100 μg OVA
[30] = mouse, in vivo
[31] = not given; remark: listed apart in the source
[32] = i.p. 5 μg/kg every 2 days
[33] = individuals not adhering to dietary calcium restriction
[34] = oral 4,000-40,000 IU/day, 28 weeks

CC(=O)Oc1ccccc1C(=O)O [ASA, acetylsalicylic acid]
IC50 [1]: ~3000 µM

O=C([O-])c1ccccc1O.[Na+] [sodium salicylate]
dose required for inhibition of TNFR1-mediated activation of NF-kappa B [2]: 10 to 20 mM

O=C(O)c1ccccc1O [salicylic acid]
solubility in ethanol/water (10:90 vol): 21 mM (≈ 2900 µg/mL) | solubility in ethanol/water (20:80 vol): 35 mM (≈ 4830 µg/mL) | solubility in ethanol/water (30:70 vol): 81 mM (≈ 11200 µg/mL) | solubility in ethanol/water (40:60 vol): 277 mM (≈ 38300 µg/mL) | solubility in ethanol/water (50:50 vol): 526 mM (≈ 72700 µg/mL) | solubility in water (salicylic acid): 14 mM (≈ 1930 µg/mL)

R121D/Y124D: human IL-4 double mutant antagonizing IL-4 and IL-13
cutaneous wheal response and circulating allergen-specific IgE ([3]; subcutaneous, 6 weeks or more): reduced | allergen-induced airways hyper-responsiveness ([3]; subcutaneously or via nebulisation): protect

C=C1CC[C@H](O)C/C1=C/C=C1\CCC[C@]2(C)[C@@H]([C@H](C)CCCC(C)C)CC[C@@H]12 [cholecalciferol]
children who experienced asthma exacerbation [4]: 17%

TFGLQLELT [nonapeptide 180-188]
rats showing clinical symptoms of adjuvant arthritis during pretreatment period ([5]; i.p. 100 μg in FIA): none of the rats | rats completely protected against subsequently induced adjuvant arthritis ([5]; three times 100 μg in FIA): 11 out of 16

Teplizumab: humanized anti CD3 mAb mutated to prevent binding to Fc receptors
clinical efficacy in phase III studies [6]: failed to show clinical efficacy

Ac-Phe-[Orn-Pro-DCha-Trp-Arg] [PMX53]
half-life [7]: 1.17 h

N=C(N)NCCCC(NC(=O)COCC(c1ccccc1)c1ccccc1)C(=O)O [SB290157, N^2-[(2,2-dipheneylethoxy)acetyl]-L-arginine]
IC50 [8]: 0.028 µM | in vivo half-life [9]: short | solubility in DMSO: 5000 µg/mL (≈ 12.1 mM) | solubility in saline solution containing 5% ethanol and 10% Cremaphor-EL: at least 10 mg/ml

CC[C@H](C)[C@H](N)C(=O)N[C@H]1CSSC[C@@H](C(=O)N[C@H](C(N)=O)[C@@H](C)O)NC(=O)[C@H](CCCN=C(N)N)NC(=O)[C@H](Cc2cnc[nH]2)NC(=O)[C@H](Cc2cnc[nH]2)NC(=O)CNC(=O)[C@H](Cc2c[nH]c3ccccc23)NC(=O)[C@H](CC(=O)O)NC(=O)[C@H](CCC(N)=O)NC(=O)[C@H](C(C)C)NC(=O)[C@H](C(C)C)NC1=O [compstatin]
IC50 [10]: […] | effect in sepsis model [11]: decrease the procoagulant response and to confer organ protection | binding to C3 from lower mammalian species or to C4 and C5 [12]: does not bind

Otelixizumab: Fc-mutated anti CD3 mAb
clinical efficacy in phase III studies [6]: failed to show clinical efficacy

CSC[C@H](NC(=O)CC[C@H](N)C(=O)O)C(=O)NCC(=O)O [GSM, S-methylglutathione]
glutathione repletion and unmasking of TNFR2-mediated effects (reproducing in vivo NAC treatment) [13]: achieved | protection against the deleterious effects of TNF-alpha on contraction [13]: protected | solubility in water: 8.1 mM (≈ 2600 µg/mL)

C=C1/C(=C\C=C2/CCC[C@]3(C)[C@@H]([C@H](C)/C=C/[C@@H](O)C4CC4)CC[C@@H]23)C[C@@H](O)C[C@@H]1O [calcipotriol]
times less effect on calcium metabolism compared to 1,25-(OH)2D3 ([14]; activation of calcium absorption and bone calcium mobilization): 100-200 times | effects of the metabolites, times weaker than those of the parent compound ([14]; in vivo): 100 times | time detectable in serum by HPLC ([15]; i.v. 10 μg/kg): up to 5 min | time detectable in serum by HPLC ([15]; i.v. 50 μg/kg): up to 10 min | half-life in circulation ([15]; rat, in vivo): short; also recorded: very short | rate of clearance, times higher than for 1,25-(OH)2D3 ([15]; rat, in vivo): approximately 140 times | systemic toxicity [16]: without systemic toxicity | CD4+CD25+ Tregs [17]: induced | antigen-specific CD8+ T cell priming [17]: abolished | solubility in ethanol: approx. 50 mg/ml | solubility in a 1:5 solution of ethanol:PBS, pH 7.2 (pH 7.2): approx. 0.15 mg/ml

C=C1CC[C@H](O)C/C1=C/C=C1\CCC[C@]2(C)[C@@H]([C@H](C)CCCC(C)(C)O)CC[C@@H]12 [25-OH-D3, 25-hydroxyvitamin D3]
serum levels of 25-OH-D3 to be kept below to avoid toxicity ([18]; based on experiments in the rat): below 250 ng/ml | serum levels of 25-OH-D3 at which toxicity occurs ([18]; rat, in vivo): ≥ 500 ng/mL | adverse effects ([19]; 1,000 to 40,000 IU/day): no adverse effects | disease progression and relapse activity [19, 34]: not affected | number of new lesions assessed by MRI [19, 34]: significant decrease

CC(=O)N[C@@H](CS)C(=O)O [NAC, N-acetyl-L-cysteine]
highest non-toxic dose [20]: 800 mg/m^2/day | GSH content of the left ventricle, % of control level in sham rats [21]: 75% | glutathione repletion and unmasking of TNFR2-mediated effects (reproducing in vivo NAC treatment) [13]: could not reproduce | protection against the deleterious effects of TNF-alpha on contraction [13]: not protected | decrease of ovalbumin-specific IgE and IgG1 ([22]; 0.5 g/liter in drinking water): ~30% | decrease of ovalbumin-specific IgE and IgG1 responses ([22]; 1.0 g/liter in drinking water): more than 70% | primary end points including vital capacity [23]: better | safety and effect on blood neutrophil GSH, airway neutrophil count and elastase activity [24]: safe and effective | cytotoxicity to resting T cells ([25]; 1 mM to 20 mM, 3 days, seven donors): nontoxic | effect on T cell function and growth ([25]; 10 mM): effective enhancer of T cell function and enhancer of growth

vitamin D
relative risk of type 1 diabetes over the subsequent 30 years ([26]; doses of exactly 50 μg/day): 0.22 | relative risk of type 1 diabetes over the subsequent 30 years ([26]; regular, doses of over 50 μg/day (2000 IU/d)): 0.14 | relative risk of developing type 1 diabetes ([26]; supplements given irregularly): 0.16 | relative risk of developing type 1 diabetes ([26]; supplements given regularly): 0.12

C=C1/C(=C\C=C2/CCC[C@]3(C)[C@@H]([C@H](C)CCCC(C)C)CC[C@@H]23)C[C@@H](O)C[C@@H]1O [alfacalcidiol]
patients going into remission [27]: 45% | patients with improvement of disease activity [27]: 89%

O=C(O)c1ccccc1O [salicylate]
levels at which tinnitus may occasionally occur [28]: ≥ 95000 ng/mL

C=C1/C(=C\C=C2/CCC[C@]3(C)[C@@H]([C@H](C)CCCC(C)(C)O)CC[C@@H]23)C[C@@H](O)C[C@@H]1O [1,25-(OH)2D3, 1α,25-dihydroxyvitamin D3]
airway hyper-responsiveness [29]: significantly inhibited | serum OVA-specific IgE levels [29]: potentiated the reduction; also recorded: significant reduction | development / onset of diabetes [30]: prevented | progression of arthritis and hypercalcemia ([31]; diet, 20 ng/mouse/day): effective in inhibiting the progression of arthritis without producing hypercalcemia | symptoms of Lyme arthritis (B. burgdorferi infection) ([31]; dietary supplementation): minimized or prevented | symptoms of collagen-induced arthritis ([31]; dietary supplementation): prevented | treated mice in which appearance of paralysis was prevented [32]: 70% | adverse effect reported [33]: hypercalcaemia; also recorded: hypercalcemia

N[C@@H](CCC(=O)N[C@@H](CS)C(=O)NCC(=O)O)C(=O)O [GSH, glutathione]
glutathione repletion and unmasking of TNFR2-mediated effects (reproducing in vivo NAC treatment) [13]: could not reproduce
